What was measured:
Type in all cases: cell-based, human
[1] = system: HT-29 orthotopic xenograft colorectal tumors; experiment: EVOC of orthotopic colon tumors, pERK and H&E/BrDu; conditions: lapatinib 4 μM combined with BRAFi (vemurafenib 4 μM)
Excerpt: 500-700 μmm^3 tumors were resected, sliced, and cultured ex-vivo. Following 4 days of drug treatment, slices were fixed and embedded in paraffin blocks. FFPE slices were stained by H&E, and the percentage of viable cancer cells was morphologically assessed on H&E stained sections by a pathologist as the ratio between viable cancer cell area and total cancer area (viable cancer cells plus necrotic cancer cells). […] Each black dot in a given treatment condition represents a different tumor. P-values were calculated by two-sided t-test. *** P<0.001 ** P<0.01. Error bars represent standard error. […] Names of the six secreted factors with the highest rScore are shown. Factors related to TNF pathways are marked in gray. Results represent the average of at least two experiments. […] Cohort size pre-treatment: 5-6, P-values of the difference on the last day of experiment were calculated by one-sided Mann-Whitney test. * P<0.05. […] Viability percentage was calculated based on the entire field of view per treatment combination. […] FFPE slices were stained by pERK and pERK activity was assessed by a pathologist. […]
For the ex-vivo experiments EVOCs from immunocompromised mice bearing human tumors were generated, as further described hereinbelow. For the in-vivo validation experiments, mice bearing subcutaneous tumors were used; and response was measured by evaluating tumor volume. […]

H1975 xenografts = experiment: EVOC viability; conditions: afatinib 3-4 μM
Procedure: Vehicle—DMSO, FGFRi—AZD4547 2-4 μM, INSRi—linsitinib 2 μM, METi—crizotinib 2-4 μM, EGFRi—afatinib 3-4 μM. Each black dot in a given treatment condition represents a different tumor. P-values were calculated by two-sided t-test. ** P<0.01, * P<0.05. Error bars represent standard error. […] Viability percentage is given per treatment combination. Scale bar represents 50 μm. […] Error bars represent standard error. […] EGFRi—gefitinib 1.6 μM, FGFRi—AZD4547 0.2 μM. The percentage of viable cancer cells was morphologically assessed on H&E stained sections by a pathologist as the ratio between viable cancer cell area and total cancer area (viable cancer cells plus necrotic cancer cells). […] Viability score was calculated based on the entire field of view. […]
Immunohistochemistry of EVOC tissues: To assess response therapy, 4 μm FFPE tissue slices were stained with H&E, or with specific antibodies: anti-pERK (Cell Signaling, #4370) followed by HRP conjugated secondary antibody (anti-Rabbit HRP, ZUC032, ZytoChem) and DAB staining (DAB substrate kit, DAB057, ZytoChem). […] All slides were scanned using the Pannoramic SCAN II (3[sequence]) and analyzed by a pathologist. The percentage of viable cancer cells was morphologically assessed on H&E stained sections by a pathologist as the ratio between viable cancer cell area and total cancer area (viable cancer cells plus necrotic cancer cells).

[2] = system: BRAF (V600E) melanoma cell lines; experiment: High-throughput secretome screen of GFP-labeled cells (rScore, bScore, ranks); conditions: G361 and SK-MEL-5; PLX4720 2 μM, PD184352 1 μM, EMAPII 50 ng/ml
Procedure: Cell lines—All cell lines (Table 1 hereinbelow) were cultured in DMEM supplemented with 100 units/ml Penicillin and Streptomycin, 2 μmM Glutamine, 1 μmM Pyruvate and 10% FCS, and maintained in a humidified incubator at 37° C. and 5% CO2. Cells were routinely tested for Mycoplasma contamination by PCR. To generate stable cell lines constitutively expressing GFP, cells were infected with lentivirus bearing plasmid pLEX_TRC206 and sorted by FACS to enrich for GFP positive population. For the in-vitro experiments, human cancer cell lines which constitutively expressed GFP were treated with various cytotoxic and targeted drugs (see Table 1 hereinbelow); and the effect of different secreted factors (Table 2 hereinbelow) on the innate resistance to a drug based on the cells' GFP level was determined.
High throughput in-vitro screens—For high-throughput screens or drug dose curves, cells were counted by Vi-Cell XR (Beckman coulter). Cells were seeded on 384 wells plates (Corning, 3712) using the EL406 washer dispenser (BioTek). Liquid handling of medium and drugs was effected by CyBi (WellFlex vario, CyBio). GFP fluorescence of cells was measured at 477/517 nm (excitation/emission) using Cytation3 (BioTek). Due to fluorescence reading bias at plate margins and corners, these margins were discarded for analysis.
High-throughput secretome screens—To screen for the effect of secreted factors on the response of cell lines to different drugs, the following seven-days procedure was performed. On day 0, GFP expressing cells were seeded at 1500-2000 cells per well on 384-wells plates (Corning, 3712), depending on the cell line's proliferation rate. Each plate was seeded with one cell line. At day 1, each plate was treated with the secretome library (Table 2 hereinabove), one well per factor. Immediately afterwards, each plate was treated either with a drug (Table 1 hereinabove) at the EC90 concentration or with DMSO control. The CyBi liquid handler was used to treat each plate with a drug and the secretome library as well as to replace the medium, drug and secreted factors following 3 days of incubation (day 4). Cell fluorescence was read at days 1, 4 and 7 by Cytation3, and for some of the experiments at day 6 as well. Wells of interest were imaged at day 7 using the Operetta (PerkinElmer).
(2) Based on observations, the plate area spanning rows 4-13 and columns 4-21 was hardly affected by plate margins biases. This area is referred to herein as plate core. To control for row specific and column specific biases, plate outliers (Zscore>4 or Zscore<−4) and edges were masked. Next, to capture row and column (col) biases for the i-th row and the j-th column, the bias factor was calculated:
Upon QC completion, 199 experiment plates and 79 control (DMSO) plates were left for further analysis. • 4—Scoring methods-A GFP value for wells without secretome factors was obtained by averaging over the plate internal control wells. Those wells contained the solvents used in the secretome library. pScore: The effect of the secreted factors on proliferation under DMSO was evaluated using pScore (proliferation score). Values were given in percent units.
rScore: The effect of the secreted factors on resistance to anti-cancer drugs was evaluated using rScore (rescue score). rScore was assigned to a given factor under two conditions: • 1. drug effect was >30% (residual drug growth<0.7) • 2. proliferation ratio between factor treated and untreated cells in the presence of drug was higher than one:
rSscore=S−S*residual drug growth
Based on manual inspection of the rScore distribution across the data, the threshold for a potential effect on drug resistance was set to 0.2 (FIGS. 8A-D).
(*) Negative values were considered as zero. […] Groups with less than 4 experiments were discarded, finally resulting in 13 groups of experiments (FIG. 1E). […]

pERK in G361 cell line = experiment: In-cell western blot of pERK; conditions: G361 cells treated with the BRAF inhibitor (vemurafenib 2 μM and trametinib 1 nM)
Procedure: PLX4720—BRAFi, 2 μM; PD184352—MEKi, 1 μM, EMAPII—50 ng/ml. P-value of the difference between GFP(drug)/GFP(no-treatment) and GFP(drug+EMAPII)/GFP(no-treatment), at day 7, was calculated by two-sided t-test. ** p<0.01, *** p<0.001. Average rScore (+/−SE) was calculated from at least four different experiments. […] A total of 69 experiments are shown. […] The effect of FGF2 (10 ng/ml), EMAPII (10 ng/ml) or AIMP1 (10 ng/ml) on G361 μmelanoma cells treated with vemurafenib (2 μM) was measured with or without the FGFR inhibitor PD17307 (0.5 μM). Data represent an average of 4 to 8 experiments. P-value was calculated by two-sided t-test. *** p<0.001. Error bars represent standard error. […] P-values were calculated by two-sided t-test relative to luciferase. * p<0.05, Q-value=0.1. […] P-value was calculated by two-sided t-test. *** p<0.001.
In-cell western blot—To validate that EMAPII mediates its effect on resistance to BRAF inhibition via the FGF receptors (FIG. 2G), the melanoma BRAF mutated cell line G361 was seeded in a 384-wells plate at a concentration of 16,000 cells per well. […] Finally, the plate was scanned with Odyssey (Li-cor) using microplate settings (169 μm, […]), and fluorescence intensity was quantified and normalized to the DRAQ level, and then to no drug control (DMSO).

With `CS(=O)(=O)CCNCc1ccc(-c2ccc3ncnc(Nc4ccc(OCc5cccc(F)c5)c(Cl)c4)c3c2)o1` [lapatinib] the “downstream pERK signaling” value [1] was “completely blocked pERK signaling”.

For `CN(C)C/C=C/C(=O)Nc1cc2c(Nc3ccc(F)c(Cl)c3)ncnc2cc1O[C@H]1CCOC1` [afatinib], the “decrease of viability of cancer cells, on average” value (H1975 xenografts) was 28%.

B1: EMAPII: endothelial-monocyte activating polypeptide II, C-terminus variant of AIMP1 (protein, UniProt Q12904 147-312, looked up)
Endothelial …: SKPIDVSRLDLRIGCIITARKHPDADSLYVEEVDVGEIAPRTVVSGLVNHVPLEQMQNRMVILLCNLKPAKMRGVLSQAMVMCASSPEKIEILAPPNGSVPGDRITFDAFPGEPDKELNPKKKIWEQIQPDLHTNDECVATYKGVPFEVKGKGVCRAQTMSNSGIK
modifications: Endothelial monocyte-activating polypeptide 2
For B1, the “effect on sensitivity to BRAF/MEK inhibition” value [2] was “conferred resistance to BRAF and MEK inhibition” and the pERK reactivation (pERK in G361 cell line) was “partially reactivate pERK”.

From patent US20240133870A1, “COMBINED TREATMENT FOR CANCER” (Yeda Research and Development Co. Ltd., priority 2021, published 2024)
